The record followed here is BindingDB's records for doi:10.1021/jm00162a015 (1987).

SMILES strings stand for the structures. pKi: −log10 of the molar value. Square brackets hold non-standard residues; d marks the D form. Peptide text beside a SMILES is read from it. * marks the point of attachment. Sta = CC(C)C[C@H](N)[C@@H](O)CC(=O)O; Boc = CC(C)(C)OC(=O)*

This assay concerns the target Rhizopuspepsin (Rhizopus chinensis). In words: Compound was tested for inhibition of Rhizopus chinensis pepsin.

`COC(=O)[C@H](CC(C)C)NC(=O)[C@@H](NC(=O)C[C@H](O)[C@H](CC(C)C)NC(=O)[C@H](C)NC(=O)[C@H](C)NC(=O)[C@H](Cc1ccccc1)NC(=O)OC(C)(C)C)C(C)C` [2-[2-(4-{2-[2-(2-tert-Butoxycarbonylamino-3-phenyl-propionylamino)-propionylamino]-propionylamino}-3-hydroxy-6-methyl-heptanoylamino)-3-methyl-butyrylamino]-4-methyl-pentanoic acid methyl ester] (Boc-FAA[Sta]VL-OMe) gave a negative logarithm of the Ki (pKi) of 7.11. The result for `COC(=O)[C@H](CC(C)C)NC(=O)[C@@H](NC(=O)[C@H](Cc1ccccc1)NC(=O)C[C@H](O)[C@H](CC(C)C)NC(=O)[C@H](C)NC(=O)[C@H](Cc1ccccc1)NC(=O)[C@H](Cc1ccccc1)NC(=O)OC(C)(C)C)C(C)C` [2-{2-[2-(4-{2-[2-(2-tert-Butoxycarbonylamino-3-phenyl-propionylamino)-3-phenyl-propionylamino]-propionylamino}-3-hydroxy-6-methyl-heptanoylamino)-3-phenyl-propionylamino]-3-methyl-butyrylamino}-4-methyl-pentanoic acid methyl ester] (Boc-FFA[Sta]FVL-OMe) reads 7.85. In turn, `COC(=O)[C@H](CC(C)C)NC(=O)[C@@H](NC(=O)[C@H](Cc1ccccc1)NC(=O)C[C@H](O)[C@H](CC(C)C)NC(=O)[C@H](C)NC(=O)[C@H](CC(C)C)NC(=O)[C@H](Cc1ccccc1)NC(=O)OC(C)(C)C)C(C)C` [2-{2-[2-(4-{2-[2-(2-tert-Butoxycarbonylamino-3-phenyl-propionylamino)-4-methyl-pentanoylamino]-propionylamino}-3-hydroxy-6-methyl-heptanoylamino)-3-phenyl-propionylamino]-3-methyl-butyrylamino}-4-methyl-pentanoic acid methyl ester] (Boc-FLA[Sta]FVL-OMe) showed a pKi of 8.04.

For the molecule `COC(=O)[C@H](CC(C)C)NC(=O)[C@@H](NC(=O)[C@H](Cc1ccccc1)NC(=O)C[C@H](O)[C@H](CC(C)C)NC(=O)[C@H](C)NC(=O)[C@H](C)NC(=O)[C@H](Cc1ccccc1)NC(=O)OC(C)(C)C)C(C)C` [2-{2-[2-(4-{2-[2-(2-tert-Butoxycarbonylamino-3-phenyl-propionylamino)-propionylamino]-propionylamino}-3-hydroxy-6-methyl-heptanoylamino)-3-phenyl-propionylamino]-3-methyl-butyrylamino}-4-methyl-pentanoic acid methyl ester] (Boc-FAA[Sta]FVL-OMe), the negative-log Ki (pKi) is 7.29.
